Test results as given in patent publication US20080242649A1, “New Combination 665” (priority 2007, published 2008).

Columns and labels:
Conditions in all cases: compound and its salts
[1] = target: T1, recombinant human α1D receptor (Homo sapiens, UniProt P25100); assay: Adrenergic α1D [3H]-prazosin binding, HEK293 membranes
T1 construct: expressed in transfected cells; host or cells: HEK293 cells (membranes)
T1 sequence (P25100 1-572): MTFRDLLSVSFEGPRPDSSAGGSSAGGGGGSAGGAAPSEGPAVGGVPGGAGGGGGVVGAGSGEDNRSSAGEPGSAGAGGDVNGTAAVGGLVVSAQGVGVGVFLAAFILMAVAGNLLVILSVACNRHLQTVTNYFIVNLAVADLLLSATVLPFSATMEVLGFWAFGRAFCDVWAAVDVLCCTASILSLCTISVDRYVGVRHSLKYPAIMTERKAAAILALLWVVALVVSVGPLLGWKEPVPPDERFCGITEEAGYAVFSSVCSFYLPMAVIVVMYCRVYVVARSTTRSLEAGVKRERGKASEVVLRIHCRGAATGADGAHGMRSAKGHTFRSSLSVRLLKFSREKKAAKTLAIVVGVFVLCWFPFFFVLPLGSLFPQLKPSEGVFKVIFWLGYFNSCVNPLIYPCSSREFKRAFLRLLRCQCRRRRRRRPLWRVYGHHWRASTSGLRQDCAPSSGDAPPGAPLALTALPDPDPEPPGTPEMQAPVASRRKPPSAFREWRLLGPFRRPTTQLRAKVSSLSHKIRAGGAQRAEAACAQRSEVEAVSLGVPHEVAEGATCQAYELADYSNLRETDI
Method: Membranes were prepared from human embryonic kidney 293 (HEK293) cells expressing recombinant human α1D receptor. These were diluted in Assay Buffer (50 mM HEPES, 1 mM EDTA, 0.1% gelatin, pH 7.4) to provide a final concentration of membranes that gave a clear window between maximum and minimum specific binding.
(§1) Assays were performed in U-bottomed 96-well polypropylene plates. 10 μL [^3H]-prazosin (0.3 nM final concentration) and 10 μL of Compound A (10× final concentration) were added to each test well. For each assay plate 8 replicates were obtained for [^3H]-prazosin binding in the presence of 10 μL vehicle (10% (v/v) DMSO in Assay Buffer; defining maximum binding) or 10 μL BMY7378 (10 μM final concentration; defining non-specific binding (NSB)). Membranes were then added to achieve a final volume of 100 μL. […] Five washes with 250 μL wash buffer (50 mM HEPES, 1 mM EDTA, pH 7.4) were performed at 4° C. to remove unbound radioactivity. […] The plates were sealed (TopSeal A) and filter-bound radioactivity was measured with a scintillation counter (TopCount, Packard BioScience) using a 3-minute counting protocol.
(§2) Total specific binding (B0) was determined by subtracting the mean NSB from the mean maximum binding. […]

[2] = target: T2, recombinant human Dopamine Subtype D2s receptors (Homo sapiens, UniProt P14416); assay: Dopamine D2 [3H]-spiperone binding
T2 construct: purchased Perkin Elmer
T2 sequence (P14416 1-414 isoform P14416-2): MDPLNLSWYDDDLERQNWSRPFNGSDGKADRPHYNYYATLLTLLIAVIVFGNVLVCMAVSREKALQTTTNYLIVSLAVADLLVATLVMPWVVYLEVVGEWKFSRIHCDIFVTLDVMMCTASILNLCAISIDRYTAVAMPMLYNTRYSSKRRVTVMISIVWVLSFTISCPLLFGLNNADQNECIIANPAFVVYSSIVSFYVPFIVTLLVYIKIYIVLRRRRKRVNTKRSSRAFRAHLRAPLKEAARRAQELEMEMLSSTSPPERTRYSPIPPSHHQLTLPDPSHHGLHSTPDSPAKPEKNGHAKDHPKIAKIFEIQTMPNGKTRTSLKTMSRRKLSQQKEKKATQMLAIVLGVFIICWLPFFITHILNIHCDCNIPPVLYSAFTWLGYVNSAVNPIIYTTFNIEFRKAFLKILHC
Method: (§3) Membranes containing recombinant human Dopamine Subtype D2s receptors were obtained from Perkin Elmer. These were diluted in Assay Buffer (50 mM HEPES, 1 mM EDTA, 120 mM NaCl, 0.1% gelatin, pH 7.4) to provide a final concentration of membranes that gave a clear window between maximum and minimum specific binding.
Assays were performed in U-bottomed 96-well polypropylene plates. 30 PL [^3H]-spiperone (0.16 nM final concentration) and 30 μL of Compound A (10× final concentration) were added to each test well. For each assay plate 8 replicates were obtained for [^3H]-spiperone binding in the presence of 30 PL vehicle (10% (v/v) DMSO in Assay Buffer; defining maximum binding) or 30 μL Haloperidol (10 PM final concentration; defining non-specific binding (NSB)). Membranes were then added to achieve a final volume of 300 μL. […] Five washes with 250 μL wash buffer (50 mM HEPES, 1 mM EDTA, 120 mM NaCl, pH 7.4) were performed at 4° C. to remove unbound radioactivity. […] The plates were sealed (TopSeal A) and filter-bound radioactivity was measured with a scintillation counter (TopCount, Packard BioScience) using a 3-minute counting protocol.
as §2

[3] = target: T3, recombinant human adrenergic beta 1 receptors (Homo sapiens, UniProt P08588); assay: Adrenergic β1 [125I]-Iodocyanopindolol binding
T3 construct: purchased Euroscreen
T3 sequence (P08588 whole entry): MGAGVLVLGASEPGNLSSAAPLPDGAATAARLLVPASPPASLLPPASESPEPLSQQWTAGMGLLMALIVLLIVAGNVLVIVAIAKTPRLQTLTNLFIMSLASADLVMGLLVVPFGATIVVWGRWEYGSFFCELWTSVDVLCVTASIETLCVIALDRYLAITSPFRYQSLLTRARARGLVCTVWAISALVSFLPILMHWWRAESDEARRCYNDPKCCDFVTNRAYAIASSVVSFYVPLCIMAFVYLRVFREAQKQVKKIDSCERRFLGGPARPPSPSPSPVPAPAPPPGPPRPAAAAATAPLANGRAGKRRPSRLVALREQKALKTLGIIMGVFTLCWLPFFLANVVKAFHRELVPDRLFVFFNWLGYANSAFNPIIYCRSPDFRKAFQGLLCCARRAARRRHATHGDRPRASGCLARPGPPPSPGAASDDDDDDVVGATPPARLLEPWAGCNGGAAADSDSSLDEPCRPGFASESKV
Method: as §3, with “adrenergic beta 1” for “Dopamine Subtype D2s”, “Euroscreen.” for “Perkin Elmer.”
as §1, with “PL [1251]-Iodocyanopindolol (0.036” for “μL [^3H]-prazosin (0.3”, “[^125]-Iodocyanopindolol” for “[^3H]-prazosin”, “Propranolol” for “BMY7378”, “EDTA, 120 mM NaCl,” for “EDTA,”
as §2

CCN(CC)CCN(CCNCCc1ccc(O)c2[nH]c(=O)sc12)C(=O)CCOCCc1cccc2ccccc12 [N-[2-(Diethylamino)ethyl]-N-(2-{[2-(4-hydroxy-2-oxo-2,3-dihydro-1,3-benzothiazol-7-yl)ethyl]amino}ethyl)-3-[2-(1-naphthyl)ethoxy]propanamide]
≥ 10 fold: selectivity of β2 adrenoceptor agonism over adrenergic α1D [1] | selectivity of β2 adrenoceptor agonism over dopamine D2 [2] | selectivity of β2 adrenoceptor agonism over adrenergic β1 [3]
